The target of the experiment is HLA-DR10 (Homo sapiens, UniProt P01911). Briefly: Subsequent screenings of ligands for binding to HLA-DR10.
Sequence of HLA-DR10 (P01911 30-266 with the stated changes): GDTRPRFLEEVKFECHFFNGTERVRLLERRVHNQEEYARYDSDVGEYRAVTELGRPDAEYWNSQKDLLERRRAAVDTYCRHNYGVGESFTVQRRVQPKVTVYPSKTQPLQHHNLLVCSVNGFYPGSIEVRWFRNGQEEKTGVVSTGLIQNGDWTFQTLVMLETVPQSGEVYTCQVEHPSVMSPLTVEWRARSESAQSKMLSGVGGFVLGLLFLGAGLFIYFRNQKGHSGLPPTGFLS
Sequence of HLA-DR10 (P01903 26-254 partner): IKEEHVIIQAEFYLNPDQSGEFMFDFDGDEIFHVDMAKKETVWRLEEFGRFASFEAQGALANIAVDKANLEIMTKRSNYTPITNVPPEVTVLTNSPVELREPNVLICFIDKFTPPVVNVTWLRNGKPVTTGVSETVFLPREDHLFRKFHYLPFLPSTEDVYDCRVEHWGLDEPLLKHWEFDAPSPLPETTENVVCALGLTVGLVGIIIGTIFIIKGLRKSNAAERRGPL

For the molecule `Nc1ccc(Oc2ccc(C(=O)c3ccc(C(=O)c4ccc(Oc5ccc(N)cc5)cc4)cc3)cc2)cc1` [1,4-Phenylenebis[[4-(4-aminophenoxy)phenyl]methanone]], the “observation with the target protein in screening” value is “precipitated onto the target protein”.

The values are drawn from patent US8536133B2, “Selective high-affinity polydentate ligands and methods of making such” (Lawrence Livermore National Security, LLC., priority 2004, dated 2013).
